In the supplement of paper PMC10307832:

What was measured:
Assay in all cases: relative viability (nuclei count vs DMSO), 5 days (fraction); higher = more cells survive
ALW-II-49-7 + OSI-027 = compound: Cc1ccc(C(=O)Nc2cccc(C(F)(F)F)c2)cc1Nc1cncc(C(N)=O)c1 [ALW-II-49-7] + COc1cccc2cc(-c3nc([C@H]4CC[C@H](C(=O)O)CC4)n4ncnc(N)c34)[nH]c12 [OSI-027] (partner 0.5 µM)
Outline: (§1)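 Lung cancer cell lines in 1536-well plates were dosed by pin tool the day after seeding, either with one drug alone or with a fixed anchor-drug dose plus five library-drug doses (not always all listed) in √10 steps. After 5 days, cells were fixed and their nuclei stained in one step (final 0.05% Triton X-100, 1% formaldehyde, 1 ug/ml Hoechst), then counted on 4× images. Relative viability is the nuclei count in treated wells divided by that in vehicle wells. Values are medians of duplicate plates.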

XMD13-2 + Pictilisib = compound: C1CC1C(=O)NC2=NNC3=C2C=CC(=C3)C4=CC(=CC=C4)C(=O)NC5CC5 [XMD13-2] + CS(=O)(=O)N1CCN(Cc2cc3nc(-c4cccc5[nH]ncc45)nc(N4CCOCC4)c3s2)CC1 [Pictilisib] (partner 1 µM)
Outline: as §1

ALW-II-49-7 + Phenformin = compound: Cc1ccc(C(=O)Nc2cccc(C(F)(F)F)c2)cc1Nc1cncc(C(N)=O)c1 [ALW-II-49-7] + N=C(N)NC(=N)NCCc1ccccc1 [Phenformin] (partner 250 µM)
Outline: as §1

ALW-II-49-7 + Pictilisib = compound: Cc1ccc(C(=O)Nc2cccc(C(F)(F)F)c2)cc1Nc1cncc(C(N)=O)c1 [ALW-II-49-7] + CS(=O)(=O)N1CCN(Cc2cc3nc(-c4cccc5[nH]ncc45)nc(N4CCOCC4)c3s2)CC1 [Pictilisib] (partner 1 µM)
Outline: as §1

Cell Line: PC-14
- relative viability (ALW-II-49-7 + OSI-027; first compound 0.08 µM): 0.815
- relative viability (ALW-II-49-7 + OSI-027; first compound 0.253 µM): 0.824
- relative viability (ALW-II-49-7 + OSI-027; first compound 0.8 µM): 0.622
- relative viability (ALW-II-49-7 + OSI-027; first compound 2.53 µM): 0.645
- relative viability (ALW-II-49-7 + OSI-027; first compound 8 µM): 0.579
- relative viability (XMD13-2 + Pictilisib; first compound 0.05 µM): 0.995
- relative viability (XMD13-2 + Pictilisib; first compound 0.1581 µM): 0.684
- relative viability (XMD13-2 + Pictilisib; first compound 0.5 µM): 0.67
- relative viability (XMD13-2 + Pictilisib; first compound 1.581 µM): 0.608
- relative viability (XMD13-2 + Pictilisib; first compound 5 µM): 0.766
- relative viability (ALW-II-49-7 + Phenformin; first compound 0.08 µM): 0.562
- relative viability (ALW-II-49-7 + Phenformin; first compound 0.253 µM): 0.637
- relative viability (ALW-II-49-7 + Phenformin; first compound 0.8 µM): 0.528
- relative viability (ALW-II-49-7 + Phenformin; first compound 2.53 µM): 0.406
- relative viability (ALW-II-49-7 + Phenformin; first compound 8 µM): 0.546
- relative viability (ALW-II-49-7 + Pictilisib; first compound 0.08 µM): 0.602
- relative viability (ALW-II-49-7 + Pictilisib; first compound 0.253 µM): 0.599
- relative viability (ALW-II-49-7 + Pictilisib; first compound 0.8 µM): 0.696
- relative viability (ALW-II-49-7 + Pictilisib; first compound 2.53 µM): 0.544
- relative viability (ALW-II-49-7 + Pictilisib; first compound 8 µM): 0.553

Cell Line: RERF-LC-KJ
- relative viability (ALW-II-49-7 + OSI-027; first compound 0.08 µM): 0.511
- relative viability (ALW-II-49-7 + OSI-027; first compound 0.253 µM): 0.564
- relative viability (ALW-II-49-7 + OSI-027; first compound 0.8 µM): 0.504
- relative viability (ALW-II-49-7 + OSI-027; first compound 2.53 µM): 0.559
- relative viability (ALW-II-49-7 + OSI-027; first compound 8 µM): 0.535
- relative viability (XMD13-2 + Pictilisib; first compound 0.05 µM): 0.57
- relative viability (XMD13-2 + Pictilisib; first compound 0.1581 µM): 0.558
- relative viability (XMD13-2 + Pictilisib; first compound 0.5 µM): 0.435
- relative viability (XMD13-2 + Pictilisib; first compound 1.581 µM): 0.571
- relative viability (XMD13-2 + Pictilisib; first compound 5 µM): 0.5
- relative viability (ALW-II-49-7 + Phenformin; first compound 0.08 µM): 0.419
- relative viability (ALW-II-49-7 + Phenformin; first compound 0.253 µM): 0.456
- relative viability (ALW-II-49-7 + Phenformin; first compound 0.8 µM): 0.414
- relative viability (ALW-II-49-7 + Phenformin; first compound 2.53 µM): 0.373
- relative viability (ALW-II-49-7 + Phenformin; first compound 8 µM): 0.397
- relative viability (ALW-II-49-7 + Pictilisib; first compound 0.08 µM): 0.599
- relative viability (ALW-II-49-7 + Pictilisib; first compound 0.253 µM): 0.557
- relative viability (ALW-II-49-7 + Pictilisib; first compound 0.8 µM): 0.608
- relative viability (ALW-II-49-7 + Pictilisib; first compound 2.53 µM): 0.542
- relative viability (ALW-II-49-7 + Pictilisib; first compound 8 µM): 0.624

Cell Line: SK-LU-1
- relative viability (ALW-II-49-7 + OSI-027; first compound 0.08 µM): 0.269
- relative viability (ALW-II-49-7 + OSI-027; first compound 0.253 µM): 0.345
- relative viability (ALW-II-49-7 + OSI-027; first compound 0.8 µM): 0.313
- relative viability (ALW-II-49-7 + OSI-027; first compound 2.53 µM): 0.289
- relative viability (ALW-II-49-7 + OSI-027; first compound 8 µM): 0.252
- relative viability (XMD13-2 + Pictilisib; first compound 0.05 µM): 0.604
- relative viability (XMD13-2 + Pictilisib; first compound 0.1581 µM): 0.671
- relative viability (XMD13-2 + Pictilisib; first compound 0.5 µM): 0.658
- relative viability (XMD13-2 + Pictilisib; first compound 1.581 µM): 0.563
- relative viability (XMD13-2 + Pictilisib; first compound 5 µM): 0.502
- relative viability (ALW-II-49-7 + Phenformin; first compound 0.08 µM): 0.445
- relative viability (ALW-II-49-7 + Phenformin; first compound 0.253 µM): 0.583
- relative viability (ALW-II-49-7 + Phenformin; first compound 0.8 µM): 0.519
- relative viability (ALW-II-49-7 + Phenformin; first compound 2.53 µM): 0.445
- relative viability (ALW-II-49-7 + Phenformin; first compound 8 µM): 0.435
- relative viability (ALW-II-49-7 + Pictilisib; first compound 0.08 µM): 0.522
- relative viability (ALW-II-49-7 + Pictilisib; first compound 0.253 µM): 0.715
- relative viability (ALW-II-49-7 + Pictilisib; first compound 0.8 µM): 0.44
- relative viability (ALW-II-49-7 + Pictilisib; first compound 8 µM): 0.514

Cell Line: SK-MES-1
- relative viability (ALW-II-49-7 + OSI-027; first compound 0.08 µM): 0.588
- relative viability (ALW-II-49-7 + OSI-027; first compound 0.253 µM): 0.547
- relative viability (ALW-II-49-7 + OSI-027; first compound 0.8 µM): 0.578
- relative viability (ALW-II-49-7 + OSI-027; first compound 2.53 µM): 0.456
- relative viability (ALW-II-49-7 + OSI-027; first compound 8 µM): 0.331
- relative viability (XMD13-2 + Pictilisib; first compound 0.05 µM): 0.408
- relative viability (XMD13-2 + Pictilisib; first compound 0.1581 µM): 0.422
- relative viability (XMD13-2 + Pictilisib; first compound 0.5 µM): 0.333
- relative viability (XMD13-2 + Pictilisib; first compound 1.581 µM): 0.365
- relative viability (XMD13-2 + Pictilisib; first compound 5 µM): 0.349
- relative viability (ALW-II-49-7 + Phenformin; first compound 0.08 µM): 0.644
- relative viability (ALW-II-49-7 + Phenformin; first compound 0.253 µM): 0.637
- relative viability (ALW-II-49-7 + Phenformin; first compound 0.8 µM): 0.625
- relative viability (ALW-II-49-7 + Phenformin; first compound 2.53 µM): 0.577
- relative viability (ALW-II-49-7 + Phenformin; first compound 8 µM): 0.512
- relative viability (ALW-II-49-7 + Pictilisib; first compound 0.08 µM): 0.331
- relative viability (ALW-II-49-7 + Pictilisib; first compound 0.253 µM): 0.48
- relative viability (ALW-II-49-7 + Pictilisib; first compound 0.8 µM): 0.367
- relative viability (ALW-II-49-7 + Pictilisib; first compound 2.53 µM): 0.365
- relative viability (ALW-II-49-7 + Pictilisib; first compound 8 µM): 0.397

Cell Line: SW 1573
- relative viability (ALW-II-49-7 + OSI-027; first compound 0.08 µM): 0.683
- relative viability (ALW-II-49-7 + OSI-027; first compound 0.253 µM): 0.653
- relative viability (ALW-II-49-7 + OSI-027; first compound 0.8 µM): 0.524
- relative viability (ALW-II-49-7 + OSI-027; first compound 2.53 µM): 0.656
- relative viability (ALW-II-49-7 + OSI-027; first compound 8 µM): 0.505
- relative viability (XMD13-2 + Pictilisib; first compound 0.05 µM): 0.57
- relative viability (XMD13-2 + Pictilisib; first compound 0.1581 µM): 0.525
- relative viability (XMD13-2 + Pictilisib; first compound 0.5 µM): 0.476
- relative viability (XMD13-2 + Pictilisib; first compound 1.581 µM): 0.466
- relative viability (XMD13-2 + Pictilisib; first compound 5 µM): 0.272
- relative viability (ALW-II-49-7 + Phenformin; first compound 0.08 µM): 0.347
- relative viability (ALW-II-49-7 + Phenformin; first compound 0.253 µM): 0.385
- relative viability (ALW-II-49-7 + Phenformin; first compound 0.8 µM): 0.374
- relative viability (ALW-II-49-7 + Phenformin; first compound 2.53 µM): 0.479
- relative viability (ALW-II-49-7 + Phenformin; first compound 8 µM): 0.398
- relative viability (ALW-II-49-7 + Pictilisib; first compound 0.08 µM): 0.475
- relative viability (ALW-II-49-7 + Pictilisib; first compound 0.253 µM): 0.486
- relative viability (ALW-II-49-7 + Pictilisib; first compound 0.8 µM): 0.465
- relative viability (ALW-II-49-7 + Pictilisib; first compound 2.53 µM): 0.47
- relative viability (ALW-II-49-7 + Pictilisib; first compound 8 µM): 0.465
